A short description of data set [1]: Ionization constants by potentiometric titration. The format is physicochemical. The following applies: mean ± SD, n = 3 titrations; for pKa: aqueous solution (DMSO stock diluted 1:10 with water), read-out: Measured pKa. As for the experimental part: The autotitrator was controlled by Tiamo software (Version 1.3). pH measurements were conducted using a Metrohm LL Micro glass electrode which was calibrated on the day of use with calibration standards at pH 2, 4, 7 and 10. All reagents were standardized (directly or indirectly) against potassium hydrogen phthalate (Sigma-Aldrich, A.C.S. Acidimetric Standard). Titrant solutions were protected from carbon dioxide absorption by flushing with nitrogen before sealing or by the incorporation of a drying tube filled with self-indicating soda lime into the titration reaction vessel set-up.
Aliquots were introduced directly into the titration vessel and diluted 1:10 with water (typical final compound concentration of 0.5 mM).

The test system of another data set is Caco-2 cell monolayers. As to the kind of experiment: Bidirectional permeability across Caco-2 cell monolayers. The following applies: matrix: pH 7.4 buffer. The procedure, abridged: (§1)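 Transport run in both directions with either HBSS/20 mM HEPES pH 7.4 or human plasma in apical and basolateral chambers, 0.1% v/v DMSO in donor. Donor and acceptor samples quantified by LC–MS; Papp and mass balance calculated, with plasma Papp corrected for donor fraction unbound. Efflux ratio = mean B–A/A–B Papp.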
In general terms: Passage across Caco-2 layers is used to estimate intestinal permeability.

The test system of another data set is human liver microsomes. Description: in vitro. The following applies: for HLM CLint: microsomes. The procedure, abridged:
(§2)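 Compound depletion in human liver microsomes was followed by LC–MS at 2–60 min, with cofactor-free controls. First-order depletion rate constants gave in vitro CLint (µL/min/mg protein), corrected to unbound CLint using measured microsomal fu.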

The target in data set [2] is T1, Albumax medium (lipid rich bovine serum albumin) (Bos taurus, UniProt P02769).
T1 construct: purchased Gibco, Thermo Fisher Scientific
Description: Binding in Albumax medium via ultracentrifugation. The format is in vitro ADME. The following applies: for fraction unbound at […], 500 ng/mL: bovine, isolated protein, pH 7.4. In a few lines: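 Unbound fraction (fu) taken as protein-free supernate concentration over total concentration after ultracentrifuging compound-spiked Albumax at 37 °C (5% or 10% CO2, or air). Analysis used 1:1 mixing with the opposite blank matrix against a common pH 7.4 calibration; degradation judged by start versus end Ctotal.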

The nature of data set [3]: Solubility in biorelevant media. The following applies: for solubility at 1 h: fassgf or other biorelevant; for solubility at 1 h / solubility: thermodynamic from solid. The procedure, abridged:
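Measured at 37 °C with 600 rpm orbital shaking in pH 7.4 PBS, FaSSIF-V2, FeSSIF-V2 and FaSSGF. Sampled at 1 h (FaSSGF) or 5–6 h (other media) after double centrifugation; supernatant quantified by LC–MS against calibration standards, triplicate aliquots.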

The next data set concerns human plasma. The following applies: methods UF, ED, EP or not described per compound, ref [6]–[22] of Additional file 1; cited from earlier work.
The nature of data set [4]: In vitro metabolism (metabolic stability) in human liver microsomes. The following applies: human, pH 7.4, HLM CLint. The procedure, abridged:
as §2
(In general: Liver microsomes are a subcellular fraction often used to study metabolism.)

Data set [5] in a line: Bidirectional permeability across Caco-2 cell monolayers. The following applies: human. The procedure, abridged:
as §1

Setting [6] is: liver microsomes, human liver microsomes, average of n = 2 replicates, < 7 means < 15% loss over 60 min.
Setting [7] is: phosphate buffered saline pH 7.4, 37 °C, pH 7.4, aqueous buffer.
The mark [8] stands for this setting: Caco-2, A–B Papp, matrix: human plasma, corrected for fu.

The values that follow come from PMC6941357, “An in vitro toolbox to accelerate anti-malarial drug discovery and development” (Malaria Journal, 2020).

Where “and” joins values, the source holds several entries; their conditions need not be identical. Identical values can stand only once. Like-named read-outs stand apart in the source and are kept apart here. Marks after values point to notes of the source that are not given here. A value given as a limit tells only on which side of the number the result lay.

T1 sequence (P02769 25-607): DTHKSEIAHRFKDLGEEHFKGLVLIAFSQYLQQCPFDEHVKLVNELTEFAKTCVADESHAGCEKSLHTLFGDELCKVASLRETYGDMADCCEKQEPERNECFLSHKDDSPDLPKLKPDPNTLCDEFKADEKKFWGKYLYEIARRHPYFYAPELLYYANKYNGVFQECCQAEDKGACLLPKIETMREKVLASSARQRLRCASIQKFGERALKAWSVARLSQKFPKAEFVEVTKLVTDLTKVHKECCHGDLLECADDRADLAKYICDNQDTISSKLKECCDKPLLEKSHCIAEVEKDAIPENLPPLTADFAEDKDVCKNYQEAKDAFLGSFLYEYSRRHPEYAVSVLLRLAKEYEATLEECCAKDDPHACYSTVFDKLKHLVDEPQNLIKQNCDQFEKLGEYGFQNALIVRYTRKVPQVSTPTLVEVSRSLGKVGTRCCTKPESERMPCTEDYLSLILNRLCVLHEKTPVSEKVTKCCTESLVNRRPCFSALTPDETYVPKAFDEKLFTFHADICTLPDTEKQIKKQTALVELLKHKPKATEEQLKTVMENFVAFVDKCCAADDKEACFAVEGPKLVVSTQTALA

For the compound `CCc1nc(N)nc(N)c1OCCCOc1ccccc1CCC(=O)O.Cl` [P218], the “Measured pKa” value in data set [1] (acidic pKa (A)) is 4.9 ± 0.002. Besides, in data set [1] (basic pKa (B)), the “Measured pKa” value was determined as 7.3 ± 0.003. Also, the “B–A Papp” value in the data set with Caco-2 cell monolayers is 15 ± 1.7 10^−6 cm/s. The efflux ratio – broadly, a quotient of directional permeabilities that is used to spot active efflux – in the data set with Caco-2 cell monolayers (mean B–A/A–B Papp) stood at 21. Besides, the “Unbound CLint” value in the data set with human liver microsomes is recorded as < 7.95^c µL/min/mg. For the same compound, the “HLM CLint” value in the data set on human liver microsomes (human) is recorded as < 7^b µL/min/mg. Besides, in data set [2], the “Fraction unbound, Albumax” value was found to be 0.41 ± 0.022. Also, in data set [3] (37 °C), the “Solubility FaSSGF (1 h)” value is > 2000 µg/mL and > 5550 µM; the “Solubility FaSSIF-V2 (5–6 h)” value is 408 µg/mL and 1130 µM; the “Solubility FeSSIF-V2 (5–6 h)” value was 525 µg/mL and 1460 µM; the “Solubility PBS7.4 (5–6 h)” value was 1070 µg/mL and 2960 µM. Also, in data set [3] (FaSSGF, FaSSIF-V2, FeSSIF-V2, PBS pH 7.4), the “solubility in all media tested” value was 400 to 500 µg/mL.

With `CCNCc1cc(Nc2ccnc3cc(Cl)ccc23)ccc1O` [Desethylamodiaquine], the Literature fu with human plasma was 0.18. Also, the pKa in data set [1] (basic pKa (B)) was found to be 8.5 ± 0.05. In data set [4] (setting [6]), the microsomal CLint (in general, a measure of how fast metabolising enzymes remove a compound, apart from limits set by blood flow) at 1 µM was determined as 13.3 µL/min/mg. The fraction unbound (in general, free concentration divided by total concentration) at […], 500 ng/mL in data set [2] is 0.75 ± 0.074.

In the case of `Cc1cc(Nc2ccc(C(F)(F)F)nc2)n2nc(C(C)(F)F)nc2n1` [DSM421], the “Measured pKa” value in data set [1] (basic pKa (B)) was “no ionizations could be detected”. Moreover, the “Unbound CLint” value in the data set on human liver microsomes was < 9.09^c µL/min/mg. Moreover, the “HLM CLint” value in the data set with human liver microsomes (human) was < 7^b µL/min/mg. Further, in data set [2], the “Fraction unbound, Albumax” value was determined as 0.43 ± 0.020. Further, the “Solubility PBS7.4 (5–6 h)” value in data set [3] (37 °C) was 85.5 µg/mL and 239 µM.

Regarding `N#Cc1cc(NC(=O)[C@H]2c3ccccc3C(=O)N(CC(F)(F)F)[C@@H]2c2cccnc2)ccc1F` [SJ733], the pKa in data set [1] (basic pKa (B)) stood at 4.1 ± 0.03. The “A–B Papp” value in the data set with Caco-2 cell monolayers is recorded as 13.4 10^−6 cm/s. Also, the Papp B→A (usually the apparent permeability from the basolateral to the apical side of a cell layer) in data set [5] (Caco-2, pH 7.4) worked out at 50 ± 2 ×10⁻⁶ cm/s. The Papp A→B (as a rule, how fast a substance crosses the layer from the apical side) in data set [5] (Caco-2, pH 7.4, A–B Papp, matrix: pH 7.4 buffer) worked out at 14 ×10⁻⁶ cm/s. This compound also yielded a microsomal CLint at 1 µM in data set [4] (setting [6]) of 142 µL/min/mg. In data set [2], this compound returned a fraction unbound at […], 500 ng/mL of 0.4 ± 0.04. Besides, the solubility (commonly the dissolved amount per volume that the medium holds) at 1 h in data set [3] (FaSSGF, 37 °C) was > 2000 µg/mL and > 4270 µM. Moreover, the solubility in data set [3] (FaSSIF-V2, 37 °C, fassif) was 101 µg/mL and 216 µM; in data set [3] (FeSSIF-V2, 37 °C, fessif) it was 119 µg/mL and 254 µM; in data set [3] (setting [7]), 115 µg/mL and 246 µM.

Turning to `COc1cc(C)c2c(Oc3cccc(C(F)(F)F)c3)c(OC)cc(NC(C)CCCN)c2n1` (stereo not drawn) [Tafenoquine], in the data set on human plasma, the Literature fu is recorded as under 0.005. In addition, in data set [1] (basic pKa (B)), the pKa amounted to 8.7 ± 0.09. Also, the Papp A→B in data set [5] (setting [8]) was over 300 ×10⁻⁶ cm/s. The microsomal CLint at 1 µM in data set [4] (setting [6]) was under 7 µL/min/mg. Further, in data set [3] (FaSSGF), the FaSSGF solubility was over 2000 µg/mL. Further, the solubility at 1 h in data set [3] (FaSSGF, 37 °C) is > 2000 µg/mL and > 2800 µM. The solubility in data set [3] (FaSSIF-V2, 37 °C, fassif) was 15.8 µg/mL and 34.1 µM; in data set [3] (FeSSIF-V2, 37 °C, fessif), 1310 µg/mL and 2820 µM; in data set [3] (setting [7]), 18.3 µg/mL and 39.5 µM.

`CC(C)(N)CNC(=O)C[C@H]1CC[C@]2(CC1)OO[C@]1(O2)C2CC3CC(C2)CC1C3` [OZ277, Arterolane]: the pKa in data set [1] (basic pKa (B)) was 8.9 ± 0.16. In data set [5] (Caco-2), the Papp B→A was 70 ± 0.38 ×10⁻⁶ cm/s. The compound further yielded a Papp A→B in data set [5] (setting [8]) of 42 ± 2.8 ×10⁻⁶ cm/s. Moreover, the microsomal CLint at 1 µM in data set [4] (microsomes) was under 7 µL/min/mg. The “Unbound CLint” value in the data set with human liver microsomes (human, 1 µM, pH 7.4) was under 159 µL/min/mg. Moreover, in data set [2], the fraction unbound at […], 500 ng/mL came out at 0.29 ± 0.021. This compound returned a FaSSGF solubility in data set [3] (FaSSGF) of over 2000 µg/mL. In data set [3] (FaSSGF, 37 °C), the solubility at 1 h is > 2000 µg/mL and > 5000 µM. The compound further displayed a FaSSIF solubility in data set [3] (FaSSIF) of over 2000 µg/mL. Moreover, the solubility in data set [3] (FaSSIF-V2, 37 °C, fassif) is > 2000 µg/mL and > 5100 µM; in data set [3] (FeSSIF-V2, 37 °C, fessif), > 2000 µg/mL and > 5000 µM; in data set [3] (setting [7]), 198 µg/mL and 504 µM. Besides, the FeSSIF solubility in data set [3] (FeSSIF) is over 2000 µg/mL.

In the case of `CC1(C)N=C(N)N=C(N)N1c1ccc(Cl)cc1` [Cycloguanil], in data set [1] (basic pKa (B)), the pKa was 11.4 ± 0.3. The “A–B Papp” value in the data set with Caco-2 cell monolayers is recorded as 1.2 ± 0.070 10^−6 cm/s; with Caco-2 cell monolayers (listed as cycloguanil), < 5 10^−6 cm/s. This compound also had a Papp B→A in data set [5] (Caco-2, pH 7.4) of 0.77 ± 0.05 ×10⁻⁶ cm/s. In addition, in data set [4] (setting [6]), the microsomal CLint at 1 µM was under 7 µL/min/mg. In data set [2], the fraction unbound at […], 500 ng/mL was 0.88 ± 0.057. In addition, the solubility at 1 h in data set [3] (FaSSGF, 37 °C) was > 2000 µg/mL and > 7950 µM. The solubility in data set [3] (FaSSIF-V2, 37 °C, fassif) was > 2000 µg/mL and > 7950 µM; in data set [3] (FeSSIF-V2, 37 °C, fessif), 533 µg/mL and 2120 µM; in data set [3] (setting [7]) it was > 2000 µg/mL and > 7950 µM.
